Measurements published in PubChem BioAssay (NCI).
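The compound was tested at five concentrations on cells cultured in 96-well plates, with a 48-hour exposure period. GI50: concentration for 50% inhibition of growth. Definition used: TGI = concentration required for complete inhibition of growth.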

What was measured:
Experiment in all cases: inhibition of tumour cell growth, NCI panel, 48 h
HOP-92 NSCLC = test system: HOP-92 NSCLC
SK-MEL-2 melanoma = test system: SK-MEL-2 melanoma
OVCAR-4 ovarian = test system: OVCAR-4 ovarian
NCI-H23 lung = test system: NCI-H23 lung
CAKI-1 renal = test system: CAKI-1 renal
BT-549 breast = test system: BT-549 breast
PC-3 prostate = test system: PC-3 prostate
HL-60(TB) leukemia = test system: HL-60(TB) leukemia
HS 578T breast = test system: HS 578T breast
IGROV1 ovarian = test system: IGROV1 ovarian
786-0 renal = test system: 786-0 renal
SK-OV-3 ovarian = test system: SK-OV-3 ovarian
SF-295 CNS = test system: SF-295 CNS
OVCAR-8 ovarian = test system: OVCAR-8 ovarian
MDA-MB-231 breast = test system: MDA-MB-231 breast
TK-10 renal = test system: TK-10 renal
RPMI-8226 leukemia = test system: RPMI-8226 leukemia
UO-31 renal = test system: UO-31 renal
ACHN renal = test system: ACHN renal
HCT-15 colon = test system: HCT-15 colon
NCI/ADR-RES ovarian = test system: NCI/ADR-RES ovarian
HCT-116 colon = test system: HCT-116 colon
SNB-19 CNS = test system: SNB-19 CNS
COLO 205 colon = test system: COLO 205 colon
SK-MEL-5 melanoma = test system: SK-MEL-5 melanoma
MOLT-4 leukemia = test system: MOLT-4 leukemia
UACC-257 melanoma = test system: UACC-257 melanoma
K-562 leukemia = test system: K-562 leukemia
NCI-H226 lung = test system: NCI-H226 lung
KM12 colon = test system: KM12 colon
EKVX NSCLC = test system: EKVX NSCLC
SR leukemia = test system: SR leukemia
SW-620 colon = test system: SW-620 colon
A549 NSCLC = test system: A549 NSCLC
LOX IMVI melanoma = test system: LOX IMVI melanoma
MALME-3M melanoma = test system: MALME-3M melanoma
MCF7 breast = test system: MCF7 breast
HT29 colon = test system: HT29 colon
SF-268 CNS = test system: SF-268 CNS
HOP-62 NSCLC = test system: HOP-62 NSCLC
DU-145 prostate = test system: DU-145 prostate
CCRF-CEM leukemia = test system: CCRF-CEM leukemia
U251 CNS = test system: U251 CNS
SNB-75 CNS = test system: SNB-75 CNS
SK-MEL-28 melanoma = test system: SK-MEL-28 melanoma
SF-539 CNS = test system: SF-539 CNS
SN12C renal = test system: SN12C renal
M14 melanoma = test system: M14 melanoma
NCI-H522 lung = test system: NCI-H522 lung
OVCAR-5 ovarian = test system: OVCAR-5 ovarian
NCI-H460 lung = test system: NCI-H460 lung
MDA-MB-435 = test system: MDA-MB-435
RXF 393 renal = test system: RXF 393 renal
UACC-62 melanoma = test system: UACC-62 melanoma
A498 renal = test system: A498 renal
OVCAR-3 ovarian = test system: OVCAR-3 ovarian

CCN(CC)c1ccc2nc3ccc(N=Nc4ccc(N(C)C)cc4)cc3[n+](-c3ccccc3)c2c1
GI50 (HOP-92 NSCLC): 0.17 µM
TGI (HOP-92 NSCLC): 0.811 µM
GI50 (SK-MEL-2 melanoma): 0.369 µM
TGI (SK-MEL-2 melanoma): 2.05 µM
GI50 (OVCAR-4 ovarian): 0.0243 µM
TGI (OVCAR-4 ovarian): 0.0929 µM
GI50 (NCI-H23 lung): 0.0809 µM
TGI (NCI-H23 lung): 1.37 µM
GI50 (CAKI-1 renal): 0.146 µM
TGI (CAKI-1 renal): 0.434 µM
GI50 (BT-549 breast): 0.424 µM
TGI (BT-549 breast): 2.57 µM
GI50 (PC-3 prostate): 0.156 µM
TGI (PC-3 prostate): 2.56 µM
GI50 (HL-60(TB) leukemia): 0.0739 µM
TGI (HL-60(TB) leukemia): 0.89 µM
GI50 (HS 578T breast): 0.448 µM
TGI (HS 578T breast): > 100 µM
GI50 (IGROV1 ovarian): 0.0934 µM
TGI (IGROV1 ovarian): 1.53 µM
GI50 (786-0 renal): 0.247 µM
TGI (786-0 renal): 2.39 µM
GI50 (SK-OV-3 ovarian): 0.39 µM
TGI (SK-OV-3 ovarian): 13.7 µM
GI50 (SF-295 CNS): 0.0376 µM
TGI (SF-295 CNS): 0.191 µM
GI50 (OVCAR-8 ovarian): 0.11 µM
TGI (OVCAR-8 ovarian): 1.48 µM
GI50 (MDA-MB-231 breast): 0.0831 µM
TGI (MDA-MB-231 breast): 0.426 µM
GI50 (TK-10 renal): 0.389 µM
TGI (TK-10 renal): 2.1 µM
GI50 (RPMI-8226 leukemia): 0.0314 µM
TGI (RPMI-8226 leukemia): 1.35 µM

COc1cc2c(Nc3ccc(NC(=O)Nc4ccc(Cl)c(C(F)(F)F)c4)c(Cl)c3)ncnc2cc1OCCCN1CCN(C)CC1
GI50 (UO-31 renal): > 100 µM
TGI (UO-31 renal): > 100 µM
GI50 (ACHN renal): 2.24 µM
TGI (ACHN renal): > 100 µM
GI50 (HCT-15 colon): 3.9 µM
TGI (HCT-15 colon): > 100 µM
GI50 (NCI/ADR-RES ovarian): 54.4 µM
TGI (NCI/ADR-RES ovarian): > 100 µM

C=CCCC1(O)C(O)C(CO)O[C@H](O[C@@]2(CO)OC(CO)C(O)C2O)C1O (stereo partly specified)
TGI (HCT-116 colon): > 100 µM
TGI (SNB-19 CNS): > 100 µM
TGI (HOP-92 NSCLC): > 100 µM
TGI (COLO 205 colon): > 100 µM
TGI (SK-MEL-5 melanoma): > 100 µM
TGI (MOLT-4 leukemia): > 100 µM
TGI (UACC-257 melanoma): > 100 µM
TGI (K-562 leukemia): > 100 µM
TGI (OVCAR-4 ovarian): > 100 µM
TGI (ACHN renal): > 100 µM
TGI (NCI-H23 lung): > 100 µM
TGI (CAKI-1 renal): > 100 µM
TGI (HCT-15 colon): > 100 µM
TGI (BT-549 breast): > 100 µM
TGI (NCI-H226 lung): > 100 µM
TGI (KM12 colon): > 100 µM
TGI (PC-3 prostate): > 100 µM
TGI (EKVX NSCLC): > 100 µM
TGI (SR leukemia): > 100 µM
TGI (SW-620 colon): > 100 µM
TGI (HL-60(TB) leukemia): > 100 µM
TGI (A549 NSCLC): > 100 µM
TGI (LOX IMVI melanoma): > 100 µM
TGI (MALME-3M melanoma): > 100 µM
TGI (MCF7 breast): > 100 µM
TGI (IGROV1 ovarian): > 100 µM
TGI (HT29 colon): > 100 µM
TGI (SF-268 CNS): > 100 µM
TGI (HOP-62 NSCLC): > 100 µM
TGI (DU-145 prostate): > 100 µM
TGI (786-0 renal): > 100 µM
TGI (CCRF-CEM leukemia): > 100 µM
TGI (U251 CNS): > 100 µM
TGI (NCI/ADR-RES ovarian): > 100 µM
TGI (SNB-75 CNS): > 100 µM
TGI (SF-295 CNS): > 100 µM
TGI (SK-MEL-28 melanoma): > 100 µM
TGI (SF-539 CNS): > 100 µM
TGI (SN12C renal): > 100 µM
TGI (OVCAR-8 ovarian): > 100 µM
TGI (MDA-MB-231 breast): > 100 µM
TGI (TK-10 renal): > 100 µM
TGI (M14 melanoma): > 100 µM
TGI (NCI-H522 lung): > 100 µM
TGI (OVCAR-5 ovarian): > 100 µM
TGI (NCI-H460 lung): > 100 µM
TGI (MDA-MB-435): > 100 µM
TGI (RPMI-8226 leukemia): > 100 µM

CCOC(=O)c1c(-c2ccccc2)[n+](=O)c2cc(Cl)c(Cl)cc2n1[O-]
GI50 (HCT-116 colon): 2.57 µM
TGI (HCT-116 colon): 11.1 µM
GI50 (UO-31 renal): 3.03 µM
TGI (UO-31 renal): > 100 µM
GI50 (SNB-19 CNS): 17.7 µM
TGI (SNB-19 CNS): 35.1 µM
GI50 (HOP-92 NSCLC): 2.09 µM
TGI (HOP-92 NSCLC): 4.6 µM
GI50 (COLO 205 colon): 3.85 µM
TGI (COLO 205 colon): 23.6 µM
GI50 (SK-MEL-5 melanoma): 14.8 µM
TGI (SK-MEL-5 melanoma): 28.8 µM
GI50 (MOLT-4 leukemia): > 100 µM
TGI (MOLT-4 leukemia): > 100 µM
GI50 (SK-MEL-2 melanoma): 18.9 µM
TGI (SK-MEL-2 melanoma): > 100 µM
GI50 (UACC-257 melanoma): 2.61 µM
TGI (UACC-257 melanoma): 8.41 µM
GI50 (RXF 393 renal): 6.59 µM
TGI (RXF 393 renal): 22.9 µM
GI50 (K-562 leukemia): 3.29 µM
TGI (K-562 leukemia): > 100 µM
GI50 (OVCAR-4 ovarian): 2.48 µM
TGI (OVCAR-4 ovarian): 6.62 µM
GI50 (ACHN renal): 11.9 µM
TGI (ACHN renal): 24.2 µM
GI50 (NCI-H23 lung): 10.1 µM
TGI (NCI-H23 lung): 25.8 µM
GI50 (CAKI-1 renal): 1.64 µM
TGI (CAKI-1 renal): 3.2 µM
GI50 (HCT-15 colon): 6.55 µM
TGI (HCT-15 colon): 21 µM
GI50 (BT-549 breast): 17.3 µM
TGI (BT-549 breast): 33.5 µM
GI50 (KM12 colon): 1.31 µM
TGI (KM12 colon): 2.77 µM
GI50 (PC-3 prostate): 0.769 µM
TGI (PC-3 prostate): 62.1 µM
GI50 (UACC-62 melanoma): 5.11 µM
TGI (UACC-62 melanoma): 22.6 µM
GI50 (EKVX NSCLC): 17.6 µM
TGI (EKVX NSCLC): 34.5 µM
GI50 (SR leukemia): 0.529 µM
TGI (SR leukemia): > 100 µM
GI50 (SW-620 colon): 16.5 µM
TGI (SW-620 colon): 37.1 µM
GI50 (HL-60(TB) leukemia): 2.68 µM
TGI (HL-60(TB) leukemia): > 100 µM
GI50 (A549 NSCLC): 15.5 µM
TGI (A549 NSCLC): 34.4 µM
GI50 (LOX IMVI melanoma): 1.56 µM
TGI (LOX IMVI melanoma): 2.91 µM
GI50 (MCF7 breast): 2.03 µM
TGI (MCF7 breast): 20.9 µM
GI50 (A498 renal): 18.4 µM
TGI (A498 renal): 33.9 µM
GI50 (HS 578T breast): 20.1 µM
TGI (HS 578T breast): 49.9 µM
GI50 (IGROV1 ovarian): 1.63 µM
TGI (IGROV1 ovarian): > 100 µM
GI50 (HT29 colon): 12 µM
TGI (HT29 colon): 36.3 µM
GI50 (SF-268 CNS): 16.6 µM
TGI (SF-268 CNS): 33.9 µM
GI50 (HOP-62 NSCLC): 4.06 µM
TGI (HOP-62 NSCLC): 18.9 µM
GI50 (DU-145 prostate): 9.4 µM
TGI (DU-145 prostate): 22.9 µM
GI50 (786-0 renal): 1.54 µM
TGI (786-0 renal): 2.87 µM
GI50 (U251 CNS): 2.33 µM
TGI (U251 CNS): 6.01 µM
GI50 (SK-OV-3 ovarian): 18.5 µM
TGI (SK-OV-3 ovarian): 33.6 µM
GI50 (NCI/ADR-RES ovarian): 18 µM
TGI (NCI/ADR-RES ovarian): 44.7 µM
GI50 (SNB-75 CNS): 8.7 µM
TGI (SNB-75 CNS): 30.2 µM
GI50 (SF-295 CNS): 4.17 µM
TGI (SF-295 CNS): 15.9 µM
GI50 (SK-MEL-28 melanoma): 13.7 µM
TGI (SK-MEL-28 melanoma): 36.3 µM
GI50 (SF-539 CNS): 15.5 µM
TGI (SF-539 CNS): 32 µM
GI50 (SN12C renal): 3.03 µM
TGI (SN12C renal): 22.2 µM
GI50 (OVCAR-8 ovarian): 2.8 µM
TGI (OVCAR-8 ovarian): 8.01 µM
GI50 (MDA-MB-231 breast): 2.09 µM
TGI (MDA-MB-231 breast): 5.55 µM
GI50 (TK-10 renal): 1.57 µM
TGI (TK-10 renal): 4.07 µM
GI50 (M14 melanoma): 13.3 µM
TGI (M14 melanoma): 27.9 µM
GI50 (NCI-H522 lung): 14.2 µM
TGI (NCI-H522 lung): > 100 µM
GI50 (OVCAR-3 ovarian): 1.8 µM
TGI (OVCAR-3 ovarian): 4.41 µM
GI50 (OVCAR-5 ovarian): 22 µM
TGI (OVCAR-5 ovarian): 47.7 µM
GI50 (NCI-H460 lung): 18.9 µM
TGI (NCI-H460 lung): 46.7 µM
GI50 (MDA-MB-435): 5.36 µM
TGI (MDA-MB-435): 19 µM
GI50 (RPMI-8226 leukemia): 0.285 µM
TGI (RPMI-8226 leukemia): 1.51 µM
